Test [1] in a line: HepG2 cell cytotoxicity, dose response, cytotoxicity control for non-replicating M. tuberculosis project (AID 489018). The test is classed as functional. To be noted: Mycobacterium tuberculosis.
Another test deals with Beta Lactamase (Pseudomonas aeruginosa, UniProt Q932Y6). The test can be described thus: BLA reporter interference, concentration series – BLA reporter cells, FRET fluorescence, artefact control for NOD2-RIPK2 interaction inhibitor project, dose response (AID 651552). It counts as functional, cell-based.
Another test concerns the target T1, Hexokinase HKDC1 (Homo sapiens, UniProt Q2TB90).
T1 sequence (Q2TB90 whole entry): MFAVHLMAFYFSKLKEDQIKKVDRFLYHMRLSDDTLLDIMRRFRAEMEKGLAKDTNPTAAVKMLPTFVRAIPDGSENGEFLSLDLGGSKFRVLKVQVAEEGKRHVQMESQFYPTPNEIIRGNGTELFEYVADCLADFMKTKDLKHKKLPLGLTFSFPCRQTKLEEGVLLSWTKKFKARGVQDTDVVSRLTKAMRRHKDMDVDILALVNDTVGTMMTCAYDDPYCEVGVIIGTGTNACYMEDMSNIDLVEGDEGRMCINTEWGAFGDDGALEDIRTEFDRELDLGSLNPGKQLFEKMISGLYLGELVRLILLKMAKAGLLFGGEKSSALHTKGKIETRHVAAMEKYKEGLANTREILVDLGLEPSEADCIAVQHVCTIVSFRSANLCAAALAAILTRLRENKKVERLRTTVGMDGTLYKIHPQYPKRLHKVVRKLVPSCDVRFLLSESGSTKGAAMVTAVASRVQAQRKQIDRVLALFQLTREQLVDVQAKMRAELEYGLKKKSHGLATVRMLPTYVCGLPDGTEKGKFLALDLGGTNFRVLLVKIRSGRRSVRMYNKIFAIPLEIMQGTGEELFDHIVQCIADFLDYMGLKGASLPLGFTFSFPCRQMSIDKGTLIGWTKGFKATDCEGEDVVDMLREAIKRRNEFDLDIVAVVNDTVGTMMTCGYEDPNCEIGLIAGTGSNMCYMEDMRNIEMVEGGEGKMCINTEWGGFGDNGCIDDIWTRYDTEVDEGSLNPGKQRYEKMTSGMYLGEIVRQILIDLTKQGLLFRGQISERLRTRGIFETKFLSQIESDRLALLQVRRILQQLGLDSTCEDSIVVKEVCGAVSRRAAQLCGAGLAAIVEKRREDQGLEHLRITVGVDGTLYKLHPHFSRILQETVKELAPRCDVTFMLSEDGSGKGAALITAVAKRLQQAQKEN
The test can be described thus: activation of HKDC1 glucose phosphorylation – biochemical, W721R variant, dose response (AID 504730). It counts as functional.

The target in the next test is 14-3-3 protein gamma (Homo sapiens, UniProt P61981). The test can be described thus: modulators of 14-3-3 gamma client binding – dose response (AID 711). It counts as functional.
Another test deals with T2, Bcl-2-related protein A1 (Mus musculus, UniProt Q07440).
T2 sequence (Q07440 whole entry): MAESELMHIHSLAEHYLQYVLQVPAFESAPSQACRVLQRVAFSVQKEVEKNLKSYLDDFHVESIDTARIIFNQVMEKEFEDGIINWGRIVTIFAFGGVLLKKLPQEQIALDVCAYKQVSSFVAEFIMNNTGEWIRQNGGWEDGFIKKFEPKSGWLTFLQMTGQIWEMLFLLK
The test is described as follows: small-molecule antagonists of Bfl-1/BH3 interaction – biochemical, TR-FRET, mouse Bfl-1, confirmation (AID 621).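 Note: TR-FRET binding of GST-Bfl-1 to FITC-labelled Bid peptide via terbium antibody.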 A general note: In TR-FRET formats the signal depends on donor and acceptor labels being close together.

The target of test [2] is T3, Tyrosyl-DNA phosphodiesterase 2 (Homo sapiens, UniProt O95551).
T3 sequence (O95551 whole entry): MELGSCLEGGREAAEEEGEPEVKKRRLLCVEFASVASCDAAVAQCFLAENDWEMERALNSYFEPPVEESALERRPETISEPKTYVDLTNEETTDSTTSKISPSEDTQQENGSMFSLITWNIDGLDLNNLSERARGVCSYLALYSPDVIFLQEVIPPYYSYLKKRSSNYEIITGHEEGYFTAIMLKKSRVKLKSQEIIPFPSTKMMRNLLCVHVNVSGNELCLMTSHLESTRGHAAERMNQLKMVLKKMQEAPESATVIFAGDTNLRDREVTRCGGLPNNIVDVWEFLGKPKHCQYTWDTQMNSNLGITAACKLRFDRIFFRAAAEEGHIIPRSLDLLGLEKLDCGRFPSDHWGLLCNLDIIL
The test can be described thus: potency against TDP2 phosphodiesterase activity – biochemical, epi absorbance, IC50, dose response (AID 743297).

Test [3] can be described thus: viability loss in CEM21 cells – cell-based, CellTiter-Glo luminescence, cherry-picked, cytotoxicity control for viral fusion inhibitor project, dose response (AID 652042).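 Note: potency for signal decrease meaning cytotoxicity.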 The test is classed as functional. On the technique in general: Cellular ATP, detected with luciferase, serves as a proxy for viable cell number.
The nature of test [4]: off-target signal loss in HeLa-CEM21 co-culture – HeLa F-luc CTL cells, cherry-picked, counter-screen for HIV-1 Env fusion inhibitor project, dose response (AID 652040).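 Note: potency for signal decrease marking cytotoxic or nonspecific inhibition.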 It counts as functional, cell-based.
A short description of test [5]: loss of viability in HepG2 cells – cell-based, CellTiter-Glo, cherry-picked, cytotoxicity control for Shn3 inhibitor project, dose response (AID 624134). It counts as functional.
For test [6], the target named is Leucine-rich repeat serine/threonine-protein kinase 2 (Homo sapiens, UniProt Q5S007). The test is classed as functional.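 Note: value from a broad kinome-wide panel profiling study in which LRRK2 was one of the kinases tested.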
Chain of Leucine-rich repeat serine/threonine-protein kinase 2 (Q5S007 whole entry): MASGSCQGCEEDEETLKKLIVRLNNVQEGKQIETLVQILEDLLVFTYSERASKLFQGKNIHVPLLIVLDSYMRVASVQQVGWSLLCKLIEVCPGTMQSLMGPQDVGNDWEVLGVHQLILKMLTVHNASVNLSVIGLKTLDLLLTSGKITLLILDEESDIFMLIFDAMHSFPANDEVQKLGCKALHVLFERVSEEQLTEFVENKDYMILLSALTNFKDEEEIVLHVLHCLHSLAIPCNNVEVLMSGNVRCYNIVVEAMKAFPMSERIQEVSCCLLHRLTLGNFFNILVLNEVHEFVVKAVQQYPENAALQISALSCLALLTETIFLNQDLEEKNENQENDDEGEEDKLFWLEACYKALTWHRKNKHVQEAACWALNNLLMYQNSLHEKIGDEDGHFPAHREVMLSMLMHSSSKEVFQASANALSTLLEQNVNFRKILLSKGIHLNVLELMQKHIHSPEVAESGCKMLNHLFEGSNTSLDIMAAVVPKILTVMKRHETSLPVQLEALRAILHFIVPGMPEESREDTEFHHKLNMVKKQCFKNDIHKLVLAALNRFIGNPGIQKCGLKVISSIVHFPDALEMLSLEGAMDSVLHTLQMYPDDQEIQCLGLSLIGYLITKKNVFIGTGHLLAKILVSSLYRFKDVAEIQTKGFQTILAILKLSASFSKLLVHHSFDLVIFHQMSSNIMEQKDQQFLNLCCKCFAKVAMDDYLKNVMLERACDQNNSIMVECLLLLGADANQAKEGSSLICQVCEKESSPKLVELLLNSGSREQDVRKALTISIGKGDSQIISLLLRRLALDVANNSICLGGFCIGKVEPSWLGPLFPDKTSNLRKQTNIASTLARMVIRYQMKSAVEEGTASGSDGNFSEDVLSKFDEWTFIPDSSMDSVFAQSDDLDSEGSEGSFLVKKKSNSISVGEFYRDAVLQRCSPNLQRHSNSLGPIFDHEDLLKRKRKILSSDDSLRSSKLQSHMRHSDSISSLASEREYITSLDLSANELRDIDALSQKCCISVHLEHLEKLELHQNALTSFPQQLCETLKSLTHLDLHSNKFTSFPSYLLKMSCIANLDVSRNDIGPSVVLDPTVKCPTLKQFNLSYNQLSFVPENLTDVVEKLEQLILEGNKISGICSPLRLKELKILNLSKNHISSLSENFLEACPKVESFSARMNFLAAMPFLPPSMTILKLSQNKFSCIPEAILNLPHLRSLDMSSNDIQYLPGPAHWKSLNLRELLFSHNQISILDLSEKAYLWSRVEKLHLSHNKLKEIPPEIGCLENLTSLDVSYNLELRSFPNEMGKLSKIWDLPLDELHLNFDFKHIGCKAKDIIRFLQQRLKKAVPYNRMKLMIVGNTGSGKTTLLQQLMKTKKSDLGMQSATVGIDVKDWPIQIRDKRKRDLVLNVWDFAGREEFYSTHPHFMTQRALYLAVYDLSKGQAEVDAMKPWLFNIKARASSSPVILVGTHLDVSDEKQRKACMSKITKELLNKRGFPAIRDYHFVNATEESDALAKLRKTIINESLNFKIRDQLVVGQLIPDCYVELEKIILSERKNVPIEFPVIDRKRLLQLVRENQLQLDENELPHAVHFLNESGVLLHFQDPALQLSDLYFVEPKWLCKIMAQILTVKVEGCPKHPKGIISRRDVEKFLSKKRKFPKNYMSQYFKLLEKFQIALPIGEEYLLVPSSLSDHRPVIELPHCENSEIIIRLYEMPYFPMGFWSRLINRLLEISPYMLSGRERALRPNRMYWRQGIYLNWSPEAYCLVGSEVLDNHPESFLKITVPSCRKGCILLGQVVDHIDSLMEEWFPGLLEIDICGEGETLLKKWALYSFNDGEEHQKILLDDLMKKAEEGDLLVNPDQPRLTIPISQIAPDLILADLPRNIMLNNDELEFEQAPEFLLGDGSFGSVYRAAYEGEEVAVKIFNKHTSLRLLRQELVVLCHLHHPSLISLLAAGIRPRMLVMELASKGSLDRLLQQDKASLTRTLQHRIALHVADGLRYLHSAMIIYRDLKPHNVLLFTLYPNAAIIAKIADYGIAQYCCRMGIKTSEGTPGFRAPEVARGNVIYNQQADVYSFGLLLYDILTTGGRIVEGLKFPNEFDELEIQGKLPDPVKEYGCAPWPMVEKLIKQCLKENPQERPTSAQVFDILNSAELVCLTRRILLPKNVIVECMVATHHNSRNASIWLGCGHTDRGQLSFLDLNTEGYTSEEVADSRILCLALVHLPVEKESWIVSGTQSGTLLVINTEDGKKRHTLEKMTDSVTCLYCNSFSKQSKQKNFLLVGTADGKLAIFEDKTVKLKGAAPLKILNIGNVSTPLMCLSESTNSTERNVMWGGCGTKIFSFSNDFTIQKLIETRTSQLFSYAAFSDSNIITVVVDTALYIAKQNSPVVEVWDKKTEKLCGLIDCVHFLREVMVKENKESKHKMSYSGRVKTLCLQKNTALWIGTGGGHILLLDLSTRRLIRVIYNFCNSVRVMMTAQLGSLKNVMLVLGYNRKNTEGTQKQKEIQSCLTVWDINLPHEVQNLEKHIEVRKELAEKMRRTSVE
Test [7] deals with Serine/threonine-protein kinase N2 (Homo sapiens, UniProt Q16513). It counts as functional.
Test [8] addresses Leukocyte tyrosine kinase receptor (Homo sapiens, UniProt P29376). The test can be described thus: Navigating the Kinome. Panel member name: LTK. The test is classed as functional.
For test [9], the target named is Mitogen-activated protein kinase 8 (Homo sapiens, UniProt P45983). The test is classed as functional.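 Note: value comes from one member of a kinome-wide kinase profiling panel.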
For test [10], the target named is ALK tyrosine kinase receptor (Homo sapiens, UniProt Q9UM73). The test is classed as functional.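 Note: ALK tested as one member of a kinase panel screen.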
Chain of ALK tyrosine kinase receptor (Q9UM73 whole entry): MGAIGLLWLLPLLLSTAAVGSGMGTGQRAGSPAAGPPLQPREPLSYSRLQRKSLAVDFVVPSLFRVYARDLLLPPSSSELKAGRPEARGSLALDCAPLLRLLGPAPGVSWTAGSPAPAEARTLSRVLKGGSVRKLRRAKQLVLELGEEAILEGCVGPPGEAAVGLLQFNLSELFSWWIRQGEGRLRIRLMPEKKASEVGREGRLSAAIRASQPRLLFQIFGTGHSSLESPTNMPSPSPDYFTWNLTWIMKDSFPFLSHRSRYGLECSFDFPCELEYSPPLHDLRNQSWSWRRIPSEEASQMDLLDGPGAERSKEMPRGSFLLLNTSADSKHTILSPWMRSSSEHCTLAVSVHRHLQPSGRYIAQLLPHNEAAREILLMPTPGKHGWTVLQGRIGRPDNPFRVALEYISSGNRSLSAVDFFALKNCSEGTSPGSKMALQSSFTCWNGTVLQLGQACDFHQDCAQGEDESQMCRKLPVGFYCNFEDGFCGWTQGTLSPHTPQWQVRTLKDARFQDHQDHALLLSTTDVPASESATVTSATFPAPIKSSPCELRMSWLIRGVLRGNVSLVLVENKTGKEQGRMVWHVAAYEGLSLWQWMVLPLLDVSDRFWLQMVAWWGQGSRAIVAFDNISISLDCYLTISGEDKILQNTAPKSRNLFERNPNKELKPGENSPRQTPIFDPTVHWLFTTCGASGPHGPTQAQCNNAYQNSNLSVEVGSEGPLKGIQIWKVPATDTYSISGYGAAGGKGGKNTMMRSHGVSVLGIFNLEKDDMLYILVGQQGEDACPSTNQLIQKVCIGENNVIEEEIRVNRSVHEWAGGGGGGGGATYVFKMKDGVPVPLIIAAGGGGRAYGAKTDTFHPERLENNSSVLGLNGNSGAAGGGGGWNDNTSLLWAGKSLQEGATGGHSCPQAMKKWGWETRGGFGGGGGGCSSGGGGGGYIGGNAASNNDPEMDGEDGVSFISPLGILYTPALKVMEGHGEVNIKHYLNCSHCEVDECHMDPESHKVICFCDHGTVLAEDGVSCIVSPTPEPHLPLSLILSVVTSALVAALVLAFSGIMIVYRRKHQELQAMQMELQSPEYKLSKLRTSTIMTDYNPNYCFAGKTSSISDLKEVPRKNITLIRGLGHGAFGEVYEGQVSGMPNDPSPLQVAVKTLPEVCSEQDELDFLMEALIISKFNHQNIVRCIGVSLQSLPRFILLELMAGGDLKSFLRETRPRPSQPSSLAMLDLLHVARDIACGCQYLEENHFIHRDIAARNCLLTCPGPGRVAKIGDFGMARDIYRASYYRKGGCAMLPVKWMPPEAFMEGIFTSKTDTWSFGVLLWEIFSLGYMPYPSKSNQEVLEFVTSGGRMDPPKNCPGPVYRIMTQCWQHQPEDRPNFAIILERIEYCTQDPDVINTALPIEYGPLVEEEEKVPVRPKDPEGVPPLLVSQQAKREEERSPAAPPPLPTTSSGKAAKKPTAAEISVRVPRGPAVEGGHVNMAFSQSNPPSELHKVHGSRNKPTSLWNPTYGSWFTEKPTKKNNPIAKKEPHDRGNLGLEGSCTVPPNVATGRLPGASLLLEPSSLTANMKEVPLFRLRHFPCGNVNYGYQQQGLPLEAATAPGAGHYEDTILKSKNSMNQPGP
The target in test [11] is Inhibitor of nuclear factor kappa-B kinase subunit epsilon (Homo sapiens, UniProt Q14164). The test is described as follows: Navigating the Kinome. Panel member name: IKBKE. The test is classed as functional.
The target in test [12] is Proto-oncogene tyrosine-protein kinase receptor Ret (Homo sapiens, UniProt P07949). It counts as functional.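 Note: measured within a kinome-wide profiling panel, RET as the panel member.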
The target of test [13] is Mitogen-activated protein kinase 10 (Homo sapiens, UniProt P53779). The test can be described thus: Navigating the Kinome. Panel member name: MAPK10. The test is classed as functional.
In test [14] the target is C-C chemokine receptor type 6 (Homo sapiens, UniProt P51684). The test is described as follows: antagonism of CCR6 beta-arrestin recruitment – cell-based, luminescent beta-arrestin readout, dose response (AID 504728). It counts as functional. Background: Arrestin recruitment assays detect the binding of arrestin to an activated receptor.
The target of test [15] is Kappa-type opioid receptor (Homo sapiens, UniProt P41145). It counts as functional.
Chain of Kappa-type opioid receptor (P41145 whole entry, canonical isoform): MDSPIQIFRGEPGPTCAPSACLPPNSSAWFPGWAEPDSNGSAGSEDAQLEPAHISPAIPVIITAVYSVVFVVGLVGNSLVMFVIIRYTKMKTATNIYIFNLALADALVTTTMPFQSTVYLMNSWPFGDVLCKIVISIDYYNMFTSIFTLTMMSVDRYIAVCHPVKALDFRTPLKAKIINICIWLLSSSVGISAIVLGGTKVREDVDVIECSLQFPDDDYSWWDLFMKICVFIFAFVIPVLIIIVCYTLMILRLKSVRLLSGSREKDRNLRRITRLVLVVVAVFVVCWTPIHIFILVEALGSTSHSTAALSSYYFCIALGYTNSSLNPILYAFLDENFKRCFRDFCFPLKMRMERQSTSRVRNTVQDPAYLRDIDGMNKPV
Test [16] has as its target Casein kinase I isoform delta (Homo sapiens, UniProt P48730). It counts as functional.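 Note: measured as one member (CSNK1D) of a kinome panel.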
Test [17] concerns the target Dual specificity mitogen-activated protein kinase kinase 2 (Homo sapiens, UniProt P36507). The test is described as follows: Navigating the Kinome. Panel member name: MAP2K2. It counts as functional.

Each structure is given as a SMILES string. Active and inactive are the calls of the source.

Chain of Casein kinase I isoform delta (P48730 whole entry, canonical isoform): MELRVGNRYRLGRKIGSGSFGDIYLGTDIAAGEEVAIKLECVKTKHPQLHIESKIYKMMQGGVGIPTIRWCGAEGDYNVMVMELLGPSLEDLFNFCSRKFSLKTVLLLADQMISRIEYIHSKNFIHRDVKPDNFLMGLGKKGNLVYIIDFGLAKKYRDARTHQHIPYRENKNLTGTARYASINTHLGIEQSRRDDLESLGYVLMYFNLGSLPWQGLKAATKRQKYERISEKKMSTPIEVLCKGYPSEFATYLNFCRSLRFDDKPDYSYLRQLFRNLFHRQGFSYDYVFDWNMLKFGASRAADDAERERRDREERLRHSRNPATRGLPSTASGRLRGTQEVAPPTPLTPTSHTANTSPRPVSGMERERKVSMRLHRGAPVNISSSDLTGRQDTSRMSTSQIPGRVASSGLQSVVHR

Regarding `COC(=O)CCS(=O)(=O)c1nc(-c2ccccc2)cc(C(F)(F)F)n1`, the CC50 (commonly the concentration at which the toxic effect on the cells reaches its halfway point) in [1] is 19.4 µM (active). Besides, the IC50 (commonly the midpoint of a concentration-inhibition curve) at Beta Lactamase was 16.4 µM (inactive).

As to `O=C(O)c1ccc(NC2=C(Cl)C(=O)c3ccccc3C2=O)cc1`, the 50% effective concentration (EC50) (as a rule, the midpoint of the concentration-response curve) on Hexokinase HKDC1 was 5.62 µM (active).

Regarding `O=C(O)c1ccc2c3c(ncnc13)-c1ccccc1C2=O`, the IC50 at 14-3-3 protein gamma is on record as > 50 µM (not active); at Bcl-2-related protein A1 it was > 100 µM (not active).

For the compound `CCOC(=O)c1c2c(n(Cc3ccccc3)c1C)C(=O)C(=O)c1ccccc1-2`, in [2], the IC50 was 4.78 µM (active). Moreover, the AC50 – broadly, the concentration at which the activity in the assay is half-maximal – in test [3] is 5.84 µM (active); in test [4], 6.77 µM (active); in test [5] it was 6.74 µM (active).

Consider `Cc1ccc2nccc(NC(=O)Nc3cccc(C(F)(F)F)n3)c2c1`, for which the Ki (commonly a dissociation constant, usually derived from enzyme kinetics or from competition with a known ligand) in test [6] was > 2.51 µM (inactive); in test [7], > 7.94 µM (inactive); in test [8], > 3.16 µM (inactive); in test [9], > 3.16 µM (inactive); in test [10], > 3.98 µM (inactive); in test [11], > 3.16 µM (inactive). The Ki in [12] is > 2 µM (inactive); in test [13] it was > 3.16 µM (inactive).

Turning to `Cc1c(/N=C2\C=CC(=O)c3ccccc32)c(=O)n(-c2ccccc2)n1C`, the figures for the IC50 in [14] and in test [15] were > 66.6 µM (inactive) and 12.1 µM (active), respectively.

On to `COc1cc2c(cc1F)C(c1ccccc1Cl)=Nc1c(n[nH]c1C)N2` [RG-1530], for which the results for the Ki in test [16] and in test [17] were > 7.94 µM (inactive) and 2.51 µM (active), respectively.

The values above are taken from ChEMBL document CHEMBL1201862, “PubChem BioAssay data set” (2004).
